Results from patent US9992997B2, “Composition comprising bromadiolone, rodenticide bait, and method for controlling target rodent pests” (priority 2014, dated 2018).
Like-named read-outs stand apart in the source and are kept apart here.

Legend:
Sprague Dawley rats = experiment: Multi-feeding administration of composition concentrated in Homo-SI, coagulation time (Quick time); type: in vivo; details: daily dose of 0.25 mg during 3 consecutive days, male or female rat
Protocol: Administration of a Composition Concentrated in Homo-SI by Multiple Ingestions (“Multi-Feeding”)
A composition of bromadiolone comprising 96% Homo-SI and 4% Hetero-SI is administered daily by tube-feeding during three days (D0, D+1 and D+2) to groups of 3 male or female laboratory rats (Sprague Dawley rats of 200 g) in an amount of: • 0.05 mg of bromadiolone per kilogram of rat, or • 0.1 mg of bromadiolone per kilogram of rat, or • 0.25 mg of bromadiolone per kilogram of rat, or • 0.5 mg of bromadiolone per kilogram of rat, or • 0.75 mg of bromadiolone per kilogram of rat.
On these rats blood samples are taken and on D+3 the coagulation time (Quick time, expressed in seconds) of the plasma is measured by means of the “Neoplastine CI Determination of Prothrombin Time” kit (Diagnostica Stago, Asnière, France) by measurement on a Thrombotimer option 2 plus apparatus (Behnk Electronik, Norderstedt, Germany).
The results obtained are given in FIG. 5, on which the hatched histograms represent the coagulation time of the female rats and the solid histograms represent the coagulation times of the male rats. By way of indication, the normal value for the coagulation time of untreated rats is of the order of 10 to 20 seconds.

[1] = Hepatic persistence in the rat after single tube-feeding of Homo-SI or Hetero-SI; type: in vivo, Sprague Dawley rats
Protocol: Hepatic Persistence of the Homostereoisomer (Homo-SI) and the Heterostereoisomer (Hetero-SI) of Bromadiolone in the Rat
On D0 laboratory rats (Sprague Dawley rats, Charles River, Saint germain sur l'Arbresle, France) having a body weight of the order of 200 g are tube-fed with a solution of Homo-SI in a mixture of oil/DMSO or with a solution of Hetero-SI in an identical mixture of oil/DMSO in an amount of 3.0 mg of bromadiolone per kilogram of rat. The rats are kept alive by daily subcutaneous injection of a solution of vitamin K in an amount of 0.1 U per rat. On D+1, D+3, D+7, D+14 and D+21 4 rats are anaesthetised with isoflurane and then sacrificed, and the livers are removed and frozen until analysed. The course with respect to time of the mean hepatic contents of the configurational stereoisomers “Homo-SI” (▪) and “Hetero-SI” (◯) are analysed by HPLC, given in Table 2 below and shown in FIG. 4 (the symbol (▪) represents Homo-SI and the symbol (◯) represents Hetero-SI).

[2] = biological target: T1, Vitamin K Epoxide Reductase Complex 1 (VKORC1) (Rattus norvegicus, UniProt Q6TEK4); experiment: Inhibition of vitamin K epoxide reductase (VKOR) activity in vitro, rat liver microsomes; type: biochemical; details: microsomes of livers of rats sensitive to AVK; preparations 96% pure; read-out: inhibition constants (Ki) of VKOR activity
T1 construct: catalysed by microsomes of the livers of rats sensitive to anti-vitamin K (AVK) compounds; from tissue; host or cells: rat liver microsomes
T1 sequence (Q6TEK4 1-161): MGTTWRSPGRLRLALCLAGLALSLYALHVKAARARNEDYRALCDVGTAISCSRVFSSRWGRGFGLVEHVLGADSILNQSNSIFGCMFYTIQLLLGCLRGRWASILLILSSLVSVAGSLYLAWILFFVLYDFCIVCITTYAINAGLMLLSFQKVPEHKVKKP
Protocol: Inhibition of Vitamin K Epoxide Reductase Complex 1 (VKORC1) In Vitro by the Homostereoisomer and by the Heterostereoisomer of Bromadiolone
The inhibitory power of two preparations concentrated respectively in the homostereoisomer (Homo-SI) and heterostereoisomer (Hetero-SI) of bromadiolone was evaluated utilising measurement of the activity of vitamin K epoxide reductase (VKOR) catalysed by microsomes of the livers of rats sensitive to anti-vitamin K (AVK) compounds. The configurational stereoisomers of bromadiolone are partially purified by HPLC chromatography over a gradient of composition (A/B) as described in Table 1 above. The preparation concentrated in Homo-SI is made up of 96% Homo-SI and 4% Hetero-SI. The preparation concentrated in Hetero-SI is made up of 96% Hetero-SI and 4% Homo-SI. […] The inhibitory power on the toxicological target of each of the two isomers is therefore similar.

[3] = Hepatic persistence of Homo-SI/Hetero-SI mixtures in the male rat; type: in vivo, male Sprague Dawley rats
Protocol: Hepatic Persistence of the Homo-SI and Hetero-SI Configurational Stereoisomers of Bromadiolone in the Male Rat
The following compositions concentrated in the Homo-SI or Hetero-SI configurational stereoisomers are prepared by one of the chromatography methods described above, in which the molar ratios are as follows: • Homo-SI/Hetero-SI: 80/20; • Homo-SI/Hetero-SI: 4/96.
On D0 16 male laboratory rats (Sprague Dawley rats, Charles River, Saint germain sur l'Arbresle, France) having a body weight of the order of 200 g are tube-fed with a dose of the 80/20 mixture or the 4/96 mixture above in an amount of 3.8 mg of bromadiolone per kilogram of rat. The rats are kept alive by daily subcutaneous injection of a solution of vitamin K. On D+1, D+3, D+5 and D+10, 4 rats are anaesthetised with isoflurane and then sacrificed, and the livers are removed and frozen until analysed.

[4] = Hepatic persistence of Homo-SI/Hetero-SI mixtures in the female rat; type: in vivo, female rats
Protocol: Hepatic Persistence of the Homo-SI and Hetero-SI Configurational Stereoisomers of Bromadiolone in the Female Rat
The following compositions concentrated in the Homo-SI or Hetero-SI configurational stereoisomers are prepared by one of the chromatography methods described above, in which the molar ratios are as follows: • Homo-SI/Hetero-SI: 80/20; • Homo-SI/Hetero-SI: 20/80.
The procedure with the female rats is the same as that with the male rats as described above. The mean hepatic contents of the Homo-SI and Hetero-SI isomers of the female rats are analysed by HPLC and are given in Table 4 below.

[5] = D + 1, 3.0 mg/kg tube-fed on D0, 3 mg/kg
[6] = D + 3, 3.0 mg/kg tube-fed on D0, 3 mg/kg
[7] = D + 7, 3.0 mg/kg tube-fed on D0, 3 mg/kg
[8] = D + 14, 3.0 mg/kg tube-fed on D0, 3 mg/kg

| SMILES | Hepatic content [1, 5] [µg/g] | Hepatic content [1, 6] [µg/g] | Hepatic content [1, 7] [µg/g] | Hepatic content [1, 8] [µg/g] | Ki [2] [µM] | Hepatic content of total bromadiolone ([3]; 3.8 mg/kg, D + 1, 3.8 mg/kg) [µg/g] | Hepatic content of total bromadiolone ([3]; 3.8 mg/kg, D + 3, 3.8 mg/kg) [µg/g] | Hepatic content of total bromadiolone ([3]; 3.8 mg/kg, D + 5, 3.8 mg/kg) [µg/g] | Hepatic content of total bromadiolone ([4]; D + 9) [µg/g] | other results |
| --- | --- | --- | --- | --- | --- | --- | --- | --- | --- | --- |
| O=c1oc2ccccc2c(O)c1C(CC(O)c1ccc(-c2ccc(Br)cc2)cc1)c1ccccc1 (stereo not shown) [96/4] | – | – | – | – | – | – | – | – | – | effect of repeated ingestion (anticoagulant effect, haemorrhage, death) (Sprague Dawley rats): sufficient to obtain an anticoagulant effect, a haemorrhage in the rat (male or female) and its death |
| O=c1oc2ccccc2c(O)c1C(CC(O)c1ccc(-c2ccc(Br)cc2)cc1)c1ccccc1 (stereo not shown) [Hetero-SI, reference compound] | 18.62 ± 2.22 | 14.70 ± 1.06 | 5.20 ± 0.75 | 2.67 ± 1.07 | ~0.05 | – | – | – | – | Hepatic content ([1]; D + 21, 3.0 mg/kg tube-fed on D0, 3 mg/kg): 0.99 ± 0.07 µg/g |
| O=c1oc2ccccc2c(O)c1C(CC(O)c1ccc(-c2ccc(Br)cc2)cc1)c1ccccc1 (stereo not shown) [Homo-SI, 3-[3-(4′-bromo-[1,1′-biphenyl]-4-yl)-3-hydroxy-1-phenylpropyl]-4-hydroxy-2H-1-benzopyran-2-one] | 8.27 ± 2.72 | 2.34 ± 0.43 | 1.57 ± 0.21 | 0.99 ± 0.06 | ~0.03 | – | – | – | – | hepatic persistence (comparison with Hetero-SI or 4/96 mixture) [3]: significantly lower; hepatic persistence compared with Hetero-SI [4]: significantly lower; concentration at 21 day ([1]; Sprague Dawley, rat, liver, oral, 3 mg/kg, D + 21, 3.0 mg/kg tube-fed on D0, read-out: Hepatic content): 920 ± 80 ng/g; hepatic persistence compared with Hetero-SI ([1]; rat, equal initial dose): significantly lower |
| O=c1oc2ccccc2c(O)c1C(CC(O)c1ccc(-c2ccc(Br)cc2)cc1)c1ccccc1 (stereo not shown) [Mixture 4/96, reference compound] | – | – | – | – | – | 14.96 ± 2.0 | 10.08 ± 3.3 | 9.99 ± 1.0 | – | Hepatic content of total bromadiolone ([3]; 3.8 mg/kg, D + 1, listed as 4/96 mixture, 3.8 mg/kg): 14.96 µg/g; concentration at 10 day ([3]; male, Sprague Dawley, rat, liver, oral, 3.8 mg/kg, D + 10, read-out: Hepatic content of total bromadiolone): 2390 ng/g |
| O=c1oc2ccccc2c(O)c1C(CC(O)c1ccc(-c2ccc(Br)cc2)cc1)c1ccccc1 (stereo not shown) [Mixture 20/80, reference compound] | – | – | – | – | – | – | – | – | 7.18 | concentration at 1 day ([4]; female, Sprague Dawley, rat, liver, oral, 3.8 mg/kg, D + 1, read-out: Hepatic content of total bromadiolone): 32500 ng/g; concentration at 3 day ([4]; female, Sprague Dawley, rat, liver, oral, 3.8 mg/kg, D + 3, read-out: Hepatic content of total bromadiolone): 24200 ng/g; concentration at 5 day ([4]; female, Sprague Dawley, rat, liver, oral, 3.8 mg/kg, D + 5, read-out: Hepatic content of total bromadiolone): 16400 ng/g |
| O=c1oc2ccccc2c(O)c1C(CC(O)c1ccc(-c2ccc(Br)cc2)cc1)c1ccccc1 (stereo not shown) [Mixture 80/20] | – | – | – | – | – | 7.85 ± 0.51 | 3.49 ± 0.29 | 2.15 ± 0.90 | 2.47 | Hepatic content of total bromadiolone ([3]; 3.8 mg/kg, D + 10, 3.8 mg/kg): 1.33 ± 0.14 µg/g; hepatic persistence (comparison with Hetero-SI or 4/96 mixture) ([3]; listed as 80/20 mixture): less persistent; concentration at 1 day ([3]; male, Sprague Dawley, rat, liver, oral, 3.8 mg/kg, D + 1, read-out: Hepatic content of total bromadiolone): 7850 ng/g; Hepatic content of total bromadiolone ([4]; D + 1): 25.39 µg/g; Hepatic content of total bromadiolone ([4]; D + 3): 12.6 µg/g |
